What was measured:
human PLD1b = settings: read-out: IC50 human PLD1b; in vitro; cited from earlier work
[1] = test system: non-HKD-containing bacterial (Streptomyces chromofuscus) PLD; settings: read-out: IC50 S. chromofuscus PLD; in vitro; cited from earlier work
PMT cells = test: Transwell matrigel invasion assay, PMT; assay type: cell-based, mouse; settings: 20 µM, 48 h
[2] = test system: 4T1 mouse metastatic breast cancer line; test: Transwell matrigel invasion assay, 4T1; assay type: cell-based; settings: 48 h
[3] = test system: MDA-231 human breast cancer cell line; test: Transwell matrigel invasion assay, MDA-231; assay type: cell-based; settings: MDA-231, 20 µM, 48 h
rat PLD1.d311 = biological target: T1, rat PLD1.d311 (Rattus norvegicus, UniProt P70496); settings: no noticeable difference between the two
T1 sequence (P70496 312-1036 isoform P70496-2): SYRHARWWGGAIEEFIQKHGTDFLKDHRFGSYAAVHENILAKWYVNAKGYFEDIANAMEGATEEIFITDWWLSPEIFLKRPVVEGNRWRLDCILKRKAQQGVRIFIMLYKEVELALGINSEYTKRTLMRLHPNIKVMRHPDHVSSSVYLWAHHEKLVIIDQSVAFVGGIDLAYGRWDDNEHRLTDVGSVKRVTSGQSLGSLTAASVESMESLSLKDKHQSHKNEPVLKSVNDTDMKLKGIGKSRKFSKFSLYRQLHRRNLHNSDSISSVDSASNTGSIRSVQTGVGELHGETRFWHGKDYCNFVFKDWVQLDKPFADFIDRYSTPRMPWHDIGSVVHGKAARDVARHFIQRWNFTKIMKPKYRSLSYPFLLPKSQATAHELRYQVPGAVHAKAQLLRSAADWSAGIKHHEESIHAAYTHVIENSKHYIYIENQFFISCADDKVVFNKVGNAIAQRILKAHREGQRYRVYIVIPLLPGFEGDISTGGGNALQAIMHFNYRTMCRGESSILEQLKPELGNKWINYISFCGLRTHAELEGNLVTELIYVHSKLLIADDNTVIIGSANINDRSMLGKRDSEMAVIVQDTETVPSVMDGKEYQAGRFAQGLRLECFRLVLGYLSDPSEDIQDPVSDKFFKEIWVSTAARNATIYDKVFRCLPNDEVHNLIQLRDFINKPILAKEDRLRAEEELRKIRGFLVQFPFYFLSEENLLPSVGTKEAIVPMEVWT

[4] = biological target: PLD2 (HEK293-gfpPLD2 cells) (Homo sapiens, UniProt O14939); test: Endogenous PLD activity assay; assay type: cell-based
Chain of PLD2 (HEK293-gfpPLD2 cells) (O14939 whole entry): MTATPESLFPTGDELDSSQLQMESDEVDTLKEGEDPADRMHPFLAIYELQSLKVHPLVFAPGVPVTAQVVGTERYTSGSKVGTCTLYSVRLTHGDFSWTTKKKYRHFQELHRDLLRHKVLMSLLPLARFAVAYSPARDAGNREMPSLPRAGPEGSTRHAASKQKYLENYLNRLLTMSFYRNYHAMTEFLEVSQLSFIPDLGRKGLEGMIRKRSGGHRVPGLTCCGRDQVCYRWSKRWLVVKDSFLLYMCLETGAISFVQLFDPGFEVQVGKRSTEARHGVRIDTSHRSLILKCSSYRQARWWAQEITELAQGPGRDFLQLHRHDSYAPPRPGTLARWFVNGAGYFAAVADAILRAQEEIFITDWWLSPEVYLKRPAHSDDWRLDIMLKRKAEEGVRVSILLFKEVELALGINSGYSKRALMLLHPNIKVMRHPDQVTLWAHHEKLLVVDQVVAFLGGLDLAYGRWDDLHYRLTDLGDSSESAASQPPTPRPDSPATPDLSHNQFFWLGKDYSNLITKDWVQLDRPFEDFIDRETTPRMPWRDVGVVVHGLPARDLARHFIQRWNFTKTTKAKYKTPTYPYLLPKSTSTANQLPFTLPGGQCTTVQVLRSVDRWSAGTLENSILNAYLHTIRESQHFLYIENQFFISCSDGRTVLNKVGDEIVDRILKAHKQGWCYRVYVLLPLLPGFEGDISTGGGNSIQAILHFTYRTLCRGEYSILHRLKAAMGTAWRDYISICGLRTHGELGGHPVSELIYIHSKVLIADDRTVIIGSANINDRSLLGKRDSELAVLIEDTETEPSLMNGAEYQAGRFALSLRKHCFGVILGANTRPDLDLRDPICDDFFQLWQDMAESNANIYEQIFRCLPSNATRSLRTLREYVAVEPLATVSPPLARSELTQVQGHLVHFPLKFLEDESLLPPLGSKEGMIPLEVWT

PLD = settings: read-out: IC50 (PLD, indirect inhibitor); cited from earlier work

| Structure (SMILES) | Invasive migration in transwell invasion assay (PMT cells) | Invasive migration in transwell invasion assay ([2]; 4T1, 20 µM) | Invasive migration in transwell invasion assay [3] | also measured |
| --- | --- | --- | --- | --- |
| CC(C)=CCC/C(C)=C/CC/C(C)=C/C1C(COP(=O)(O)OP(=O)(O)O)C1(C)CC/C=C(\C)CCC=C(C)C (stereo in doubt) [presqualene diphosphate] | – | – | – | IC50 (human PLD1b): > 1000 nM; IC50 [1]: 100 nM |
| O=C(NCCN1CCC(n2c(=O)[nH]c3ccccc32)CC1)c1ccc2ccccc2c1 [Compound 56] | significantly (P < 0.05) decrease | significantly (P < 0.05) decrease | significantly (P < 0.05) decrease | – |
| O=C(NCCN1CCC(n2c(=O)[nH]c3ccccc32)CC1)[C@@H]1C[C@H]1c1ccccc1 [Compound 58] | significantly decreased cell migration | significantly decreased cell migration | significantly decreased cell migration | Invasive migration in transwell invasion assay ([2]; 4T1, 200 nM): significantly decreased cell migration |
| O=C(NCCN1CCC(n2c(=O)[nH]c3ccccc32)CC1)c1cc(Br)c(Br)o1 [Compound 64] | – | – | – | Inhibition of basal and myr-Arf-1-stimulated activity of purified PLD1.d311 (rat PLD1.d311): directly inhibited |
| C[C@@H](CN1CCC(n2c(=O)[nH]c3cc(Cl)ccc32)CC1)NC(=O)c1ccc2ccccc2c1 [Compound 69] | significantly decreased cell migration | significantly decreased cell migration | significantly decreased cell migration | Invasive migration in transwell invasion assay ([2]; 4T1, 200 nM): significantly decreased cell migration |
| O=C(NCCN1CCC2(CC1)C(=O)NCN2c1ccccc1)c1ccc(C(F)(F)F)cc1 [Compound 70] | – | – | – | IC50 [4]: > 20000 nM |
| O=C(NCCN1CCC2(CC1)C(=O)NCN2c1ccccc1)c1ccc2ccccc2c1 [Compound 72] | significantly decreased cell migration | significantly decreased cell migration | significantly decreased cell migration | – |
| O=C(c1ccc(Cl)cc1)N(CCN1CCC2(CC1)C(=O)NCN2c1ccccc1)C(=O)c1ccc(Cl)cc1 [Compound 82] | significantly decreased cell migration | significantly decreased cell migration | significantly decreased cell migration | – |
| Oc1ccc(/C=C/c2cc(O)cc(O)c2)cc1 [resveratrol] | – | – | – | IC50 (PLD): > 60000 nM |
